For 14 compounds, EC50 results are on record in patent US20250034182A1, “PHOSPHOLIPID COMPOUNDS AND METHODS OF MAKING AND USING THE SAME” (priority 2021, published 2025).

For test [1], the system named is CAN97-83-GFP1 (A2a) hMPV in H1-HeLa cells. In words: hMPV H1-Hela EC50, anti-nucleoprotein ELISA (Example X). The test is classed as cell-based. The settings on record: human metapneumovirus, 96 h, read-out: hMPV H1-Hela EC50 (nM) (per Ex. X). On the procedure:
The human metapneumoavirus (hMPV) anti-viral assay is an anti-nucleoprotein ELISA performed in infected H1-HeLa cells. H1-HeLa cells were maintained in Dulbecco's Modified Eagle's Medium with high glucose (Gibco, Cat #: 11995073) supplemented with 10% FBS (HyClone, Cat #: SH303396.03), 100 units/mL penicillin and 100 μg/mL streptomycin (Gibco, Cat #: 15140122). One day before infection, H1-HeLa cells were seeded into 96-well plates (Corning, Cat. #: 3903) at 0.1 mL/well at 1.5×10^5 cells/mL in Opti-MEM (Gibco, Cat #: 31985070) supplemented with 2% FBS, and were incubated at 37° C. in a 100% humid atmosphere containing 5% (v/v) CO2 overnight. On the next day, CAN97-83-GFP1 (A2a) hMPV was diluted in Opti-MEM medium containing 200 μg/mL CaCl2) and 2 μg/mL TPCK treated trypsin and distributed to the 96-well plates at 0.1 mL/well for an MOI=0.1. Test compounds were distributed to each well using a HP D300e digital dispenser with a final volume of 200 µL/well. After the plates were centrifuged at 700 g for one hour at room temperature, they were maintained in a humidified chamber at 37-C with 5% (v/v) CO2 for 96 hours. After the incubation, the medium was removed, and the plates were fixed with 0.1 mL/well 1% formaldehyde for 15 min at room temperature. The fixative was removed, the plates were air dried for 30-60 minutes, and then permeabilized with 0.1 mL/well 0.5% Triton X-100 in PBS for five minutes at room temperature. Following permeabilization, the plates were washed once with 0.1 mL/well blocking buffer consisting of 10% FBS (HyClone, Cat #: SH303396.03), 5% dry milk (AmericanBio, Cat #: AB10109-01000), and 0.1% Tween 20 (EMD Millipore, Cat #655204) in PBS. The plates were blocked with 0.1 mL/well blocking buffer for 60 minutes at 37° C. afterward. The blocking buffer was removed and 0.05 mL/well human metapneumovirus nucleocapsid antibody (Sigma, Cat #MAB80121) diluted 1:500 in Blocking buffer was added and incubated for two hours at 37-C. The plates were then washed with 0.2 mL/well 0.1% Tween 20/PBS five times, followed by addition of 0.05 mL/well of horseradish peroxidase (HRP) conjugated goat anti-mouse IgG antibody (Fisher Scientific, Cat #501077607) at 1:2000 dilution in the blocking buffer. After one-hour incubation at 37-C, plates were washed five times with 0.2 mL/well 0.1% tween 20 in PBS. The HRP signals were developed by adding 0.1 mL/well of TMB reagent (Thermo Scientific, Cat #: ENN301) and incubating at room until the positive control was apparent. At that point, the reaction was stopped by adding 0.1 mL/well TMB stop solution (SeraCare, Cat #: 5150-0021). The absorbance was measured at 450 nm with an EnVision plate reader. The relative absorbance was calculated by normalizing the absorbance of the compound-treated groups to that of the DMSO-treated groups (set as 100%). EC50 values were calculated using a nonlinear four parameter variable slope regression model.

In test [2] the test system is Recombinant Respiratory Syncytial virus strain A2 containing the firefly luciferase reporter (RSV-Fluc) in NHBE cells. Put plainly: RSV NHBE FLuc EC50 (Example I). The test is classed as cell-based. The following applies: human respiratory syncytial virus, 72 h, read-out: RSV NHBE FLuc EC50 (nM) (per Ex. I). A digest of the protocol: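 NHBE primary cells (passage 2-4) treated with threefold compound dilutions and infected with RSV A2 firefly-luciferase reporter virus at MOI 0.1; 3 days at 37° C, 5% CO2. ONE-Glo luminescence normalized to uninfected and infected DMSO controls; EC50 from non-linear regression, duplicates with two technical repeats.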

Each structure is given as a SMILES string.

In the case of `CCCCCCCCCCCCCCCCCCOC[C@H](COP(=O)(O)OC[C@@]1(C#N)O[C@@H](c2ccc3c(N)ncnn23)[C@H](O)[C@@H]1O)OCc1cc(F)cc(C#N)c1` [Compound 1, ((2R,3S,4R,5S)-5-(4-aminopyrrolo[2,1-f][1,2,4]triazin-7-yl)-2-cyano-3,4-dihydroxytetrahydrofuran-2-yl)methyl ((R)-2-((3-cyano-5-fluorobenzyl)oxy)-3-(octadecyloxy)propyl) hydrogen phosphate], the results for the EC50 in test [1] and in test [2] were 440 nM and 104 nM, respectively.

In the case of `CCCCCCCCCCCCCCCCCCOC[C@H](COP(=O)(O)OC[C@@]1(C#N)O[C@@H](c2ccc3c(N)ncnn23)[C@H](O)[C@@H]1O)OCc1ccc(C#N)c(Cl)c1` [Compound 7, ((2R,3S,4R,5S)-5-(4-aminopyrrolo[2,1-f][1,2,4]triazin-7-yl)-2-cyano-3,4-dihydroxytetrahydrofuran-2-yl)methyl ((R)-2-((3-chloro-4-cyanobenzyl)oxy)-3-(octadecyloxy)propyl) hydrogen phosphate], the 50% effective concentration (EC50) is 358 nM in test [1] and 113 nM in test [2].

In the case of `CCCCCCCCCCCCCCCCCCOC[C@H](COP(=O)(O)OC[C@@]1(C#N)O[C@@H](c2ccc3c(N)ncnn23)[C@H](O)[C@@H]1O)Oc1ccc(C#N)c(OC(C)C)c1` [Compound 23, ((2R,3S,4R,5S)-5-(4-aminopyrrolo[2,1-f][1,2,4]triazin-7-yl)-2-cyano-3,4-dihydroxytetrahydrofuran-2-yl)methyl ((R)-2-(4-cyano-3-isopropoxyphenoxy)-3-(octadecyloxy)propyl) hydrogen phosphate], the figures for the EC50 in test [1] and in test [2] were 156 nM and 16 nM, respectively.

For the compound `CCCCCCCCCCCCCCCCCCC[C@H](COP(=O)(O)OC[C@@]1(C#N)O[C@@H](c2ccc3c(N)ncnn23)[C@H](O)[C@@H]1O)OCc1cc(F)cc(C#N)c1` [Compound 25, ((2R,3S,4R,5S)-5-(4-aminopyrrolo[2,1-f][1,2,4]triazin-7-yl)-2-cyano-3,4-dihydroxytetrahydrofuran-2-yl)methyl ((R)-2-((3-cyano-5-fluorobenzyl)oxy)henicosyl) hydrogen phosphate], the EC50 was 1280 nM in test [1] and 98 nM in test [2].

As to `CCCCCCCCCCCCCCCCCCC[C@H](COP(=O)(O)OC[C@@]1(C#N)O[C@@H](c2ccc3c(N)ncnn23)[C@H](O)[C@@H]1O)OCc1ccc(C#N)c(OC(C)C)c1` [Compound 28, ((2R,3S,4R,5S)-5-(4-aminopyrrolo[2,1-f][1,2,4]triazin-7-yl)-2-cyano-3,4-dihydroxytetrahydrofuran-2-yl)methyl ((R)-2-((4-cyano-3-isopropoxybenzyl)oxy)henicosyl) hydrogen phosphate], the results for the EC50 in test [1] and in test [2] were 625 nM and 28 nM, respectively.

As for `CCCCCCCCCCCCCCCCC[C@H](COP(=O)(O)OC[C@@]1(C#N)O[C@@H](c2ccc3c(N)ncnn23)[C@H](O)[C@@H]1O)OCc1cc(F)cc(C#N)c1` [Compound 36, ((2R,3S,4R,5S)-5-(4-aminopyrrolo[2,1-f][1,2,4]triazin-7-yl)-2-cyano-3,4-dihydroxytetrahydrofuran-2-yl)methyl ((R)-2-((3-cyano-5-fluorobenzyl)oxy)nonadecyl) hydrogen phosphate], the EC50 in test [1] is 1100 nM; in test [2] it was 121 nM.

Consider `CCCCCCCCCCCCCCCCCCC[C@H](COP(=O)(O)OC[C@@]1(C#N)O[C@@H](c2ccc3c(N)ncnn23)[C@H](O)[C@@H]1O)Oc1ccc(C#N)c(OC(C)C)c1` [Compound 38, ((2R,3S,4R,5S)-5-(4-aminopyrrolo[2,1-f][1,2,4]triazin-7-yl)-2-cyano-3,4-dihydroxytetrahydrofuran-2-yl)methyl ((R)-2-(4-cyano-3-isopropoxyphenoxy)henicosyl) hydrogen phosphate], for which the EC50 was 137 nM in test [1] and 23 nM in test [2].

Take `CCCCCCCCCCCCCCCCCCOCC(COc1cc(F)cc(C#N)c1)COP(=O)(O)OC[C@@]1(C#N)O[C@@H](c2ccc3c(N)ncnn23)[C@H](O)[C@@H]1O` (stereo partly drawn) [Compound 43, ((2R,3S,4R,5S)-5-(4-aminopyrrolo[2,1-f][1,2,4]triazin-7-yl)-2-cyano-3,4-dihydroxytetrahydrofuran-2-yl)methyl (3-(3-cyano-5-fluorophenoxy)-2-((octadecyloxy)methyl)propyl) hydrogen phosphate]: the EC50 turned out to be 901 nM in test [1] and 129 nM in test [2].

For `CCCCCCCCCCCCCCCC[C@@H](COP(=O)(O)OC[C@@]1(C#N)O[C@@H](c2ccc3c(N)ncnn23)[C@H](O)[C@@H]1O)OCc1cc(F)cc(C#N)c1` [Compound 79, ((2R,3S,4R,5S)-5-(4-aminopyrrolo[2,1-f][1,2,4]triazin-7-yl)-2-cyano-3,4-dihydroxytetrahydrofuran-2-yl)methyl ((S)-2-((3-cyano-5-fluorobenzyl)oxy)octadecyl) hydrogen phosphate], the EC50 in test [1] amounted to 1610 nM.

Turning to `CCCCCCCCCCCCCCC[C@H](COP(=O)(O)OC[C@@]1(C#N)O[C@@H](c2ccc3c(N)ncnn23)[C@H](O)[C@@H]1O)OCc1cc(F)cc(C#N)c1` [Compound 80, ((2R,3S,4R,5S)-5-(4-aminopyrrolo[2,1-f][1,2,4]triazin-7-yl)-2-cyano-3,4-dihydroxytetrahydrofuran-2-yl)methyl ((R)-2-((3-cyano-5-fluorobenzyl)oxy)heptadecyl) hydrogen phosphate], the concentration giving a half-maximal response (EC50) in test [1] worked out at 668 nM.

In the case of `CCCCCCCCCCCCCCCCCC[C@H](COP(=O)(O)OC[C@@]1(C#N)O[C@@H](c2ccc3c(N)ncnn23)[C@H](O)[C@@H]1O)OCc1cc(Cl)cc(C#N)c1` [Compound 81, ((2R,3S,4R,5S)-5-(4-aminopyrrolo[2,1-f][1,2,4]triazin-7-yl)-2-cyano-3,4-dihydroxytetrahydrofuran-2-yl)methyl ((R)-2-((3-chloro-5-cyanobenzyl)oxy)icosyl) hydrogen phosphate], in test [1], the EC50 came to 453 nM.

With `CCCCCCCCCCCCCCCCCCC[C@H](COP(=O)(O)OC[C@@]1(C#N)O[C@@H](c2ccc3c(N)ncnn23)[C@H](O)[C@@H]1O)OCc1cc(Cl)cc(C#N)c1` [Compound 82, ((2R,3S,4R,5S)-5-(4-aminopyrrolo[2,1-f][1,2,4]triazin-7-yl)-2-cyano-3,4-dihydroxytetrahydrofuran-2-yl)methyl ((R)-2-((3-chloro-5-cyanobenzyl)oxy)henicosyl) hydrogen phosphate], the EC50 in test [1] was found to be 1120 nM.

Regarding `CCCCCCCCCCCCCCCCCC[C@H](COP(=O)(O)OC[C@@]1(C#N)O[C@@H](c2ccc3c(N)ncnn23)[C@H](O)[C@@H]1O)OCc1cc(F)cc(C#N)c1` [Compound 84, ((2R,3S,4R,5S)-5-(4-aminopyrrolo[2,1-f][1,2,4]triazin-7-yl)-2-cyano-3,4-dihydroxytetrahydrofuran-2-yl)methyl ((R)-2-((3-cyano-5-fluorobenzyl)oxy)icosyl) hydrogen phosphate], the EC50 in test [1] is 367 nM.

Take `CCCCCCCCCCCCCCCCOC[C@@H](COP(=O)(O)OC[C@@]1(C#N)O[C@@H](c2ccc3c(N)ncnn23)[C@H](O)[C@@H]1O)OCc1cc(F)cc(C#N)c1` [Compound 88, ((2R,3S,4R,5S)-5-(4-aminopyrrolo[2,1-f][1,2,4]triazin-7-yl)-2-cyano-3,4-dihydroxytetrahydrofuran-2-yl)methyl ((S)-2-((3-cyano-5-fluorobenzyl)oxy)-3-(hexadecyloxy)propyl) hydrogen phosphate]: the EC50 in test [1] was 348 nM.

What is called EC50 is the concentration that produces a half-maximal response.
